Reference: patent US10149860B2, “Compositions and methods for treating alzheimer's disease and other tauopathies” (Board of Trustees Of The Leland Stanford Junior University, priority 2013, dated 2018)

Columns and labels:
FAF = target: T1, FAF (Drosophila melanogaster, UniProt P55824); experiment: Drosophila larval NMJ bouton number after feeding WP1130 in fly food; format: in vivo
T1 construct: Mhc-Gal4>PAR-1 and control Mhc-Gal4/+ animals were fed with fly food containing WP1130 or DMSO alone; endogenous in cells; host or cells: Drosophila third instar larvae (body-wall muscle / NMJ)
Experimental: For immunohistochemistry, third instar lavae were selected, dissected in PBS, fixed in 4% formaldehyde (Ted Pella) in PBS for about 15 minutes and washed 3× in 0.1% Triton X-100 in PBS. The primary antibodies used were: anti-PAR-1 (1:10,000), anti-phospho-PAR-1 (1:1,000); anti-Slimb (1:1,000); anti-Dlg (4F3) (1:50, Hybridoma bank, University of Iowa); anti-GFP (1:8,000, Abcam); anti-dtau (1:3). Primary antibody incubation was performed at 4° C. overnight. All secondary antibodies (Molecular Probes) and Texas Red or FITC-conjugated anti-HRP (Jackson ImmunoResearch Laboratories) were used at 1:200 and incubated for about 2 hours at room temperature. Laval preparations were mounted in SlowFade Antifade kit (Invitrogen). Confocal images were collected from Leica confocal microscopes SP2 and SP5 equipped with 40× or 100× inverted NX oil lens. Leica Application Suite Advanced Fluorescence software was used to capture, process and analyze images. Analysis of the NMJ was performed essentially as described^51. All crosses for genetic interaction studies in the NMJ were performed at 25° C.
(§1) Either WP1130 (Selleck Chemicals) or DMSO (Sigma) was added to fly food at 2, 5 or 10 μM concentrations. Feeding third instar larvae were collected from the drug-containing food and dissected in PBS. Besides Mhc-GAL4>UAS-APP, which were raised at 29° C., all flies were raised at 25° C.
Fly eye sizes were measured on multiple samples (n>15) from both control and experimental genotypes using the NIH ImageJ software. Average eye size was presented as a normalized percentage of control eye size. We performed two-tailed unpaired Student's t-test to analyze the significance of differences between two groups. Quantification of NMJ bouton number was performed according to previously described protocols (Lee et al., 2010). NMJ bouton number is normalized by muscle area at muscle 6/7 in abdominal segment A3. The experimental genotypes were normalized relative to the control genotype.
To investigate whether WP1130 may act as an inhibitor of FAF to control PAR-1 activity in vivo, Mhc-Gal4>PAR-1 and control Mhc-Gal4/+ animals were fed with fly food containing WP1130 or DMSO alone. […] Given the potent effect of WP1130 in modulating PAR-1 protein level, whether WP1130 would affect the phosphorylation of tau was tested.
(a) Quantification of the pharmacological effect of WP1130 on the total number of boutons on muscle 6/7 of A3, after normalization with bouton area. Indicated genotype flies were incubated with 0, 2, 5 or 10 μM concentrations of WP1130. (b) Western blot analyses showing the effects of WP1130 (10 μM) on PAR-1-Myc levels in third instar larvae body-wall muscle extracts. Values represent normalized PAR-1-Myc levels. Actin serves as loading control. (c) Quantification of NMJ bouton number showing rescue by WP1130 (10 μM) of the bouton-loss phenotypes induced by Mhc-Gal4>UAS-htauM or Mhc-Gal4>UAS-htauM+UAS-PAR-1. (d) Western blot analysis showing reduced 12E8-positive htauM level by WP1130 (10 μM). Values represent normalized 12E8-positive htauM levels. Actin serves as loading control. (e) Quantification of NMJ bouton number showing rescue by WP1130 (10 μM) of the bouton-loss phenotypes induced the expression APP/Aβ-42. (f) A model depicting possible signaling pathways linking APP/Aβ-42 to synaptic dysfunction and synapse loss seen in AD. Dashed lines indicate potential direct regulations.

PAR-1 = experiment: Western blot of PAR-1-Myc levels in third instar larvae body-wall muscle extracts; format: in vivo, Drosophila; settings: Mhc-Gal4>PAR-1 larvae; WP1130 10 μM vs DMSO; FIG. 26b
Experimental: (§2) For Western blot analysis, the primary antibodies used were: anti-PAR-1 (1:8,000), anti-phospho-PAR-1 (1:1,000); anti-HA (1:2,000, Sigma); anti-Myc (1:1,000, Millipore); anti-GFP (1:2,000, Abcam); anti-Dlg (4F3) (1:1,000, Hybridoma bank, University of Iowa); 12E8 (1:8,000); anti-Actin (1:40,000, Sigma); anti-Gapdh (1:3,000, Abcam).
as §1
(§3) To investigate whether WP1130 may act as an inhibitor of FAF to control PAR-1 activity in vivo, Mhc-Gal4>PAR-1 and control Mhc-Gal4/+ animals were fed with fly food containing WP1130 or DMSO alone. […]
(§4) (a) Quantification of the pharmacological effect of WP1130 on the total number of boutons on muscle 6/7 of A3, after normalization with bouton area. […] (c) Quantification of NMJ bouton number showing rescue by WP1130 (10 μM) of the bouton-loss phenotypes induced by Mhc-Gal4>UAS-htauM or Mhc-Gal4>UAS-htauM+UAS-PAR-1. […] (e) Quantification of NMJ bouton number showing rescue by WP1130 (10 μM) of the bouton-loss phenotypes induced the expression APP/Aβ-42. […]

[1] = system: htau phosphorylation at 12E8 sites; experiment: Western blot of 12E8-positive htauM level in WP1130-fed flies; format: in vivo, Drosophila; settings: WP1130 10 μM vs DMSO; FIG. 26d
Experimental: as §2, §1, §3, §4

MARK4 [2] = experiment: Western blot of MARK4 stability in HEK 293T cells transfected with hMARK4-HA; format: cell-based, human; settings: HEK 293T cells with hMARK4-HA; 5 μM WP1130 for 8 h; FIG. 25a
Experimental: (§5) HEK 293T cells transfected with the hMARK4-HA plasmids were treated with 5 μM WP1130 for 8 h and subsequently used for western blot analysis. Actin serves as loading control. […] Cultured HEK 293T cells were treated with 0, 2, 5 and 10 μM WP1130 for 12 h, and used for western blot analysis. Actin serves as loading control.

[3] = system: endogenous tau phosphorylation at the MARK sites; experiment: Western blot of endogenous tau phosphorylation (12E8 antibody) in HEK 293T cells; format: cell-based, human; settings: 0, 2, 5 and 10 μM WP1130 for 12 h, FIG. 25b
Experimental: as §5

MARK4 [4] = experiment: Western blot of MARK4 in brain extracts of PS19 tauopathy mice after ICV infusion; format: in vivo; settings: relative to vehicle controls, FIG. 27
Experimental: (§6) To test the effects of WP1130 in a mammalian model of AD, the drug was administered to Tauopathy mice (PS19) expressing the pathogenic P301S human tau transgene. Mice received intracerebroventricular (ICV) infusion of either WP1130 or vehicle controls and MARK4 and p-Tau levels were assessed by western blot. […] Tauopathy mice (PS19) expressing the pathogenic P301S human tau transgene were treated with vehicle (#1, 2, 4, 6, 12) or WP1130 (#5, 8, 13, 14, 15) by intracerebroventricular (ICV) infusion, and brain extracts were subjected to Western blot analysis with the indicated antibodies. Actin serves as a loading control, and T14 anti-Tau antibody measures levels of total tau. Note the reduction of MARK4 and p-Tau (S262) protein levels by drug treatment.

[5] = system: tau phosphorylation at the PAR-1/MARK target site (S262); experiment: Western blot of p-Tau (S262) in brain extracts of PS19 tauopathy mice after ICV infusion; format: in vivo; settings: relative to vehicle controls, FIG. 27
Experimental: as §6

PS19 mice = experiment: Passive avoidance test in PS19 tauopathy mice; format: in vivo; settings: WP1130-treated PS19 mice vs wt and vehicle treated PS19 mice; FIG. 28
Experimental: The passive avoidance test was used to test whether WP1130 could rescue the learning and memory deficits expressed in the PS19 mice. During training, the animals were subjected to electric shock on the foot in the dark chamber. During testing, the trained animals were placed in the light chamber and the time it took the animals to enter the dark chamber (latency time) was recorded. […] (Top) A diagram showing the passive-avoidance test, in which animals were allow to freely moving between the light and dark chambers during habituation. During training, the animals were subjected to electric shock on the foot in the dark chamber. During testing, the trained animals were placed in the light chamber and the time it took the animals to enter the dark chamber (latency time) was recorded. (Bottom) Statistical analysis of the latency times of vehicle-treated WT control, vehicle-treated PS19 tauopathy mice, and drug-treated PS19 tauopathy during the habituation, training, and testing periods. ** indicates P<0.01 in Student's t-test.

T1 sequence (P55824 whole entry, the tested form may be a part): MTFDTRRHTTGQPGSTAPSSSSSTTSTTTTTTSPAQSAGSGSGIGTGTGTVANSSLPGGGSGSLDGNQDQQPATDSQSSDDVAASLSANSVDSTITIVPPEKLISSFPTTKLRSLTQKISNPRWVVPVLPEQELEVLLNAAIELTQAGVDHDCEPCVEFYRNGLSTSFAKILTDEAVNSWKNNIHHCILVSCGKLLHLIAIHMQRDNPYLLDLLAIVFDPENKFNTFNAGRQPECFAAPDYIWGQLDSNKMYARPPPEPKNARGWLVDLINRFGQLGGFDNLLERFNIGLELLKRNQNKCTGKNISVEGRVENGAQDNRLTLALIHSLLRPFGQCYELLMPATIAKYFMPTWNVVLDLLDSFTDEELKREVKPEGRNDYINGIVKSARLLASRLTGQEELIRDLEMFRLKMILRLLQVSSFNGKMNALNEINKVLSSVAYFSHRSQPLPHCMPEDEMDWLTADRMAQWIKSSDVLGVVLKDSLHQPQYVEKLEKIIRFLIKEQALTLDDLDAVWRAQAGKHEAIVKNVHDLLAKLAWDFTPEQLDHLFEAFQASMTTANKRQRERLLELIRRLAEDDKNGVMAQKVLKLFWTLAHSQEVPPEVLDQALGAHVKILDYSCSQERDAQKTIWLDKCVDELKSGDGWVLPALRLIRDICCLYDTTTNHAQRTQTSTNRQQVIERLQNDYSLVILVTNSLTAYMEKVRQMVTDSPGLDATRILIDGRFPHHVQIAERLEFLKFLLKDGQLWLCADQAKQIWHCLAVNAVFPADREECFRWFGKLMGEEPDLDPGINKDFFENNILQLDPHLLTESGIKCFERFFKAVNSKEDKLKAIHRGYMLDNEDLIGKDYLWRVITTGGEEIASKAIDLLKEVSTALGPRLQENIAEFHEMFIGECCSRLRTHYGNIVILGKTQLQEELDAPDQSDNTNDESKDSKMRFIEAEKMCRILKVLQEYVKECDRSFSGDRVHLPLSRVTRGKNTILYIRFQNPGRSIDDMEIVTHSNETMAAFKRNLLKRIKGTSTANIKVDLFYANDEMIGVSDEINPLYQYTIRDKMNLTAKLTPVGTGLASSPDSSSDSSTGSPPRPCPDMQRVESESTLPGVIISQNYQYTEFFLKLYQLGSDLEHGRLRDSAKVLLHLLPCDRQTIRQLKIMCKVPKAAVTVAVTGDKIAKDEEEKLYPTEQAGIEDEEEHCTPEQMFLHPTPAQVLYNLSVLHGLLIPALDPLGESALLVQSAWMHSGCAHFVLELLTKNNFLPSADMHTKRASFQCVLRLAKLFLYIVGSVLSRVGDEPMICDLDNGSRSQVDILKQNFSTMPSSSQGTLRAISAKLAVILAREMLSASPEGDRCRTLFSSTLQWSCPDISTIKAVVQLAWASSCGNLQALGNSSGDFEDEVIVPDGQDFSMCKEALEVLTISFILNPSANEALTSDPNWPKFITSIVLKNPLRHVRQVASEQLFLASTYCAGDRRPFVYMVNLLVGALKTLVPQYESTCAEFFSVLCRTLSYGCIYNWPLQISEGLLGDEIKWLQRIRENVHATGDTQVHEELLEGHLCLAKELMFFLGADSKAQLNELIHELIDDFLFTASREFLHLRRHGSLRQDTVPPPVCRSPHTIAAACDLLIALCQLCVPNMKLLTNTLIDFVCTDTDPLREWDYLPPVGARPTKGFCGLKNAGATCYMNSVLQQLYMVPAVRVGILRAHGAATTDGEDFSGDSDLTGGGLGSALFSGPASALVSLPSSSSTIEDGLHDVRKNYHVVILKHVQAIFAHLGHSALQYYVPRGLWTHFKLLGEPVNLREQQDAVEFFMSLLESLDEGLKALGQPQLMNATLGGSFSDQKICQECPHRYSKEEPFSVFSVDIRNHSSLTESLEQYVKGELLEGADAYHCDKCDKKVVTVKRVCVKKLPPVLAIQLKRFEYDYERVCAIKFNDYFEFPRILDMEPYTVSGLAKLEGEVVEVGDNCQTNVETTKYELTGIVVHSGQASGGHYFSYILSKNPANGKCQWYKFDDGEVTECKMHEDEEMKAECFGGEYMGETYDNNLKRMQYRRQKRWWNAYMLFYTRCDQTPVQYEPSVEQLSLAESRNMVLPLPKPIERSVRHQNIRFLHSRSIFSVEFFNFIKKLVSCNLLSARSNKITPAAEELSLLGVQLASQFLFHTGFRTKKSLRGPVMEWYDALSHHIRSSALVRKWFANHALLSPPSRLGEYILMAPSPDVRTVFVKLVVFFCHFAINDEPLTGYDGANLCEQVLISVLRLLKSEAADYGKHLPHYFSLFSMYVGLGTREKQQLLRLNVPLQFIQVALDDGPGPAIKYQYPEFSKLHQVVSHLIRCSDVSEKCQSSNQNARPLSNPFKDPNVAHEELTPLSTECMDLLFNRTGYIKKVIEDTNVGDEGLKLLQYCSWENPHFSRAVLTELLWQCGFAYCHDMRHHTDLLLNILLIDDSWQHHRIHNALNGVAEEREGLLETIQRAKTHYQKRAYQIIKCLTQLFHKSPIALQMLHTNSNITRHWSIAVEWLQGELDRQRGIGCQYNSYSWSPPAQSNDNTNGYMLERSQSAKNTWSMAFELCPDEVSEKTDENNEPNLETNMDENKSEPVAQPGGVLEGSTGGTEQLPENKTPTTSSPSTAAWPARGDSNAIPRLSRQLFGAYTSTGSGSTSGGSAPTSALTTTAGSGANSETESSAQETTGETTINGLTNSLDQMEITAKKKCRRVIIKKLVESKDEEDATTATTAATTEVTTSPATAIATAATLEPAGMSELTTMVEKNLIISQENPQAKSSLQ

CCC[C@H](NC(=O)/C(C#N)=C/c1cccc(Br)n1)c1ccccc1 [WP1130, (S,E)-3-(6-bromopyridin-2-yl)-2-cyano-N-(1-phenylbutyl)acrylamide]
loss of NMJ bouton number caused by overexpression of PAR-1 (FAF; Mhc-Gal4>PAR-1 larvae, WP1130 in fly food at 0, 2, 5 or 10 μM vs DMSO, FIG. 26a): highly effective in preventing the loss of NMJ bouton number | bouton-loss phenotype caused by the co-expression of PAR-1 and htauM (FAF; Mhc-Gal4>UAS-htauM+UAS-PAR-1, WP1130 10 μM vs DMSO, FIG. 26c): partially suppressed | bouton-loss phenotype caused by the postsynaptic toxicity of APP/Aβ-42 (FAF; WP1130 10 μM, FIG. 26e): effectively suppressed | synaptic-loss phenotype caused by postsynaptic co-expression of FAF and Slimb-ΔF (FAF; WP1130 in fly food vs DMSO, FIG. 26a): blocked synaptic-loss phenotype | bouton-loss phenotype induced by Mhc-Gal4>UAS-htauM (FAF; htauM alone, WP1130 10 μM, FIG. 26c): rescue | PAR-1 protein level (PAR-1): reducing PAR-1 protein level | htau phosphorylation at 12E8 sites [1]: dramatically decreased | stability of MARK4 (MARK4 [2]): decreases the stability of MARK4 | endogenous tau phosphorylation at the MARK sites (12E8 antibody) [3]: decreased endogenous tau phosphorylation | MARK4 level (MARK4 [4]): significantly reduced | phosphorylated tau level [5]: significantly reduced | latency time to enter the dark chamber (PS19 mice): latency times comparable to that of wt
